Measurements published in patent US6326465A, “Immunomodulatory polypeptides derived from the invariant chain of MHC class II” (The Johns Hopkins University, priority 1998, dated 2001).

How the values were obtained:
[1] = tested on: Lewis syngeneic PHA blasts; assay: Lysis of PHA lymphoblast target cells by syngeneic GVHD effector T cells; assay type: cell-based, rat; details: target cells loaded with 10 uM; versus diluent treated target cells
Description: FIG. 1. Graph showing comparison of percent specific lysis conferred by truncated variants of CLIP. Lewis syngeneic PHA blasts were force-loaded with the truncated variants of CLIP (10 μmol/L, 1 hr, 4° C.) prior to assay. Effector T cells (nylon wool nonadherent) were derived from animals with syngeneic GVHD that were clonally expanded in thymectomized secondary Lewis recipients.
Truncated peptides from the rat MHC Class II invariant chain V0 : (sequence aa 82-103 […] (SEQ ID NO:1)), V1: aa 90-104 (SEQ ID NO:2), V2: 86-100 (SEQ ID NO:3), V3: 90-100(SEQ ID NO:4) were synthesized by Quality Controlled Biochemicals Co. (Hopkinton, Ma.) and purified by HPLC.^15,23 The peptides (>92% purity) were dissolved in RPMI 1640 prior to use. Force loading of CLIP was accomplished by incubating the cells in 10 μM of the peptide for 1 hr. at 4° C. […] Antibody was prepared to the CLIP peptide by Quality Controlled Biochemicals Co. The peptides were conjugated to keyhole limpet hemocyanin (KLH). Rabbits were immunized with the peptide-KLH conjugate. The antibody was affinity purified using peptide conjugated sepharose matrix columns.
We first evaluated whether CLIP in rats is recognized by the autoreactive T cells associated with CsA-induced syngeneic GVHD by comparing the lysis of target cells after various pretreatment conditions.
Target cells were loaded with the CLIP variants (10 uM) and evaluated for […]

[2] = tested on: tumor cells; assay: Cytokine modulation of CsA-induced SGVHD in the rat model; assay type: in vivo; details: for cure of animals: animals given 5×10^3 tumor cells; for enhancement of the antitumor effect of SGVHD: rat model
[3] = tested on: target cells; assay type: cell-based, rat
[4] = tested on: CRL 1662 myeloma cells; assay: Antitumor activity after adoptive transfer of syngeneic GVHD effector T cells; assay type: in vivo, rat; details: with syngeneic GVHD effector cells; […]10^4 CRL 1662 cells; cytokines for ten days
Description: Nylon wool nonadherent spleen cells (50×10^6) from Lou M animals with syngeneic GVHD were adoptively transferred into secondary Lou M recipients (irradiated, bone marrow reconstituted) challenged with 2.5×10^4 CRL 1662 myeloma cells. […] Survival was assessed and log tumor cell kill was estimated from dose response studies (see Table 6).

Row | Substance | cure of animals [2] | enhancement of the antitumor effect of SGVHD [2] | further results
1 | KPCSP(R) |  |  | Enhancement of Target Cell Recognition [1]: +++ (enhancement representing at least a >25% increase in specific killing)
2 | interferon-α | about half | 1-2 logs | 
3 | staphylococcal enterotoxin β [SEB] |  |  | ability of effector T lymphocytes to recognize and lyse the target cells [3]: completely inhibited; preventing recognition and lysis [3]: ineffective
4 | γ-interferon: cytokine, 50,000 U/d | about half | 1-2 logs | Estimated Log Tumor Cell Kill [4]: 2.5-3.0
